Experimental data published in US5705649A, “Protein staining compositions and methods” (Promega Corporation, priority 1995, dated 1998).
Values belong to the compound of their own block, whether it stands above or below them.

Experiments:
[1] = tested on: carbonic anhydrase; assay: In-gel staining with octyl and dodecyl derivatives of MDPF; details: 31 kdalton standard; stain stock in cathode buffer and wells
Description: (§1) Two 10-well, 12% gels were made as described in Example 5 and were loaded with diluted Promega Mid Range Molecular Weight Standards to produce lanes containing 200, 100, 80, 60, 40, 20, 10, and 5 ng of protein per band following fractionation by electrophoresis. These protein levels were applied to the gels in 10 μl of loading buffer described in Example 5 and then 10 μl of a 1:100 dilution of the derivative stock solution (Example 33) into a solution of 20% glycerol, 1% sodium dodecyl sulfate was added to the wells. The gels were then run as described in Example 5 except that 0.5 ml of derivative stain stock was added to the cathode buffer in the gel and the Promega Green 1 dye was omitted from the solution. The gels were placed on a transilluminator following electrophoresis and were observed visually and photographed as described above. Staining of the protein bands was seen down to 80 ng of protein per band for the dodecyl derivative for all proteins and, for the 31 kdalton standard (carbonic anhydrase) down to 60 ng/band. Staining of the bands was seen to 60 ng/band for all proteins with the octyl derivative, with the carbonic anhydrase being detectable down to 40 ng per band. Therefore both stains can be used for in-gel staining of proteins.

[2] = tested on: Promega Mid Range Molecular Weight Standards; assay: as above; details: stain stock in cathode buffer and wells
Description: as §1

[3] = tested on: Promega Mid Range Molecular Weight Standards; assay: Post-electrophoretic staining of gels with octyl and dodecyl derivatives of MDPF
Description: A fifteen well, 12% gel was made as described in example 5 and was loaded with diluted Promega Mid Range Molecular Weight Standards to produce lanes containing samples having 200, 100, 80, 60, 40, 20 and 10 ng of protein per band. The gel was run as described in example 5 except that Promega Green 1 was not added to the cathode buffer. After electrophoresis, the gel was cut between lanes to produce gel segments containing fractionated protein samples at each of the concentrations listed above and these were placed in 30% methanol for 25-30 min at room temperature. The stock stain solutions of Example 33 were then diluted into distilled water at a concentration of 0.5% (v/v), and 50 ml of these solutions were used to stain the gels. After 1 hr incubation, the gels were visualized and photographed using a transilluminator. […] The gels were then placed in 5% methanol and allowed to destain overnight.
After overnight destaining, the gel segments were again placed upon a transilluminator, visualized and photographed. […] Nonetheless, these derivatives can be used for sensitive post-electrophoretic staining of proteins in gels.

[4] = tested on: Promega Mid-Range Molecular Weight Standards; assay: Post-electrophoretic detection of protein using NBODY derivatives; details: crude dye solution in 5% acetic acid, 20% ethanol, one hour
Description: Promega Mid-Range Molecular Weight Standards were diluted and heated as described in Example 27 to produce solutions containing 125, 25, 5 and 1 ng of protein per band in 10 microliters of solution. A 10% Tris Glycine, precast polyacrylamid gel from Novex Corp. (San Diego, Calif., USA, Cat. No. EC 6075.) was loaded with 10 microliters of the just described, diluted molecular weight standard solutions in lanes so that two lanes, each with the same diluted standard solution, were separated by a blank lane. The gel was developed using conditions recommended by the manufacturer and following development, the gel was cut in the blank lane. The segments were placed in 50 ml of 5% acetic acid, 20% ethanol. Six hundred microliters of the NBODY-C12 reaction mixture from Example 40 was added to the solution with one of the segments of a pair (of lanes with the same protein molecular weight standard solution) and three hundred microliters of the NBODY-C16 reaction mixture from Example 40 was added to the solution with the other segment of the same pair. After one hour of incubation, the gel segments were photographed on a transilluminator as described in example 27. Protein bands were detected in the lanes containing the 125 and 25 ng of protein per band using this method and the crude dye solutions from Example 40.

[5] = tested on: Promega Mid Range Molecular Weight standard; assay: Optimization of staining with dodecyl dansyl stain, acetic acid/ethanol fixing and staining
Description: Two 12% SDS-PAGE gels were run with diluted Promega Mid Range Molecular Weight standard to produce samples of proteins at 20, 10, and 5 ng of protein per band present in the gels. The gels were made as in Example 27 and proteins were fractionated on the gels in a BioRad Miniprotean II gel system as recommended by the manufacturer. The gels were cut to produce segments of gel containing three lanes of samples containing one lane each of the protein concentrations described above and placed for 15 min in 50 ml of one of the following fixative solutions: 30% ethanol, 20% acetic acid; 40% ethanol, 10% acetic acid; 40% ethanol, 20% acetic acid; 50% ethanol, 10% acetic acid; and 50% ethanol, 20% acetic acid. After the 15 min incubation, the gels were transferred into another 50 ml of the same fixative solution containing 50 μl of dodecyl dansyl stain solution (in 50 ml ethanol, Example 28). After 3 hrs., the segments were placed in 50 ml of 50 mM Tris-Cl, pH8.0, for 5 min and then were visualized on a transilluminator and photographed.
After visualization, the segments were returned to their respective staining solutions and allowed to incubate overnight. The following morning, the segments were visualized and photographed directly on a transilluminator without prior incubation in a different solution.

[6] = tested on: Promega Mid-Range Molecular Weight Markers; assay: In-gel staining with dodecyl dansyl stain; details: 0.1% (v/v) stain in cathode buffer
Description: In order to determine if in-gel staining with dodecyl dansyl stain could be performed, a gel containing the concentrations of reagents in the gel buffers and running buffers listed in Example 5 was made and run as described in Example 5 with two exceptions: 1) dodecyl dansyl stain (in 50 ml ethanol, Example 28) was added to the cathode buffer at 0.1% (v/v) instead of Promega Green 1; 2) Promega Mid-Range Molecular Weight markers were diluted into 1× loading buffer as described in Example 5 and were loaded on the gel to produce lanes containing each protein at concentrations from 1000 ng/lane to 3.1 ng/lane. Following electrophoresis, the gel was placed directly on a transilluminator and visualized and photographed as described above. […] Thus, staining while the gel is running can be performed with the dodecyl dansyl stain and is particularly favorable for protein species with low mobilities.

[7] = tested on: Promega Mid-Range Molecular Weight Standards; assay: Optimization of post-electrophoretic staining with dodecyl dansyl stain
Description: In order to determine if alternative staining conditions would improve the detection of protein by fluorescent staining with the dodecyl dansyl stain, the following experiment was performed. Two 12% SDS-PAGE minigels from Bio-Rad Corporation were used to fractionate samples of diluted Promega Mid-Range Molecular Weight Standards which were loaded into alternate lanes of the gel to produce protein bands containing 25 and 5 ng of each protein per band in adjacent lanes. The gels were run as recommended by the manufacturer in Bio-Rad Miniprotean II electrophoresis units and sliced to produce two lane segments containing one lane each of the 25 and 5 ng sample lanes. One slice was placed in each of the following solutions (50 ml) followed by incubation of the segment in a second 50 ml of the solution containing 200 μl of dodecyl dansyl derivative solution (in 50 ml ethanol) of Example 28: distilled water; 1% acetic acid; 1% trichloroacetic acid; 5M sodium chloride; 0.5M Tris base; 0.5M ammonium bicarbonate, pH 5.0; 2M Tris pH8.0; 0.05M sodium hydroxide; and 10% ethanol. The gels were allowed to stain overnight at room temperature and then were observed on a transilluminator to allow visualization and photography of the fluorescently stained bands as described in Example 27. […] It was thought that this is due to an inability of the particular stain derivative used to fluoresce under the highly acidic condition produced in the trichloroacetic acid solution.
In order to determine if the stain remained intact in these solutions and to standardize the conditions for the stains, the gel segments were then incubated in 50 ml of distilled water. After 1 hr, the segments were re-observed and re-photographed. […] Thus, staining sensitivity is dependent upon staining conditions and mildly acidic conditions appear to improve the sensitivity of staining.

[8] = tested on: Promega Mid Range Molecular Weight Standards; assay: Detection of fractionated protein in SDS-PAGE gels using dansyl derivatives made in acetone
Description: Several 15-well, SDS-PAGE minigels were poured as described in Example 27 and loaded with Promega Mid Range Molecular Weight Standards diluted as described in Example 27 to provide samples containing 1000, 300, 100, 50, 25, 12.5, and 6.25ng of each protein per band in separate lanes of the gel. The samples were fractionated by application of 20 mA per gel until the tracking dye reached the bottom of the gel. All the gels were placed in 10% trichloroacetic acid for 5 min and then incubated for 10 min in 10% (v/v) methanol. The gels were then incubated in a 10% methanol solution containing 2% (v/v) of the derivative eluates (dissolved in 50 ml ethanol) described in Example 28. The gels were transferred to a transilluminator and both visualized and photographed after two hours of staining. The following observations were made. Only the lanes containing 1000 and 300ng of protein per band were visible in the gel incubated with the n-butyl dansyl derivative. The lanes containing the 1000, 300, 100, 50, 25ng per band were visible in the gel incubated with the n-hexyl derivative as were some of the bands in the 12.5 ng per band lane.
After overnight incubation in the stain solutions, the gels were re-observed and rephotographed.
The gels were then placed in 1% acetic acid to remove any unbound stain and rephotographed after three hours of incubation in this solution at room temperature.

[9] = tested on: Promega Mid Range Molecular Weight Standards; assay: Post-electrophoretic detection of protein with purified dansyl derivatives
Description: Samples of the eluates from purification of the derivatives were diluted 20-fold with ethanol and the absorption of the resulting solutions from 400 to 220 nm was measured. The absorption of the solutions at 328 nm was used as an indication of the concentration of the derivative in the staining studies in Example 27.
Several SDS-PAGE minigels were made as described in Experiments with Gene Fusions, Silhavy, Berman, Enquist, supra, using the SDS concentrations described by the authors. Samples of Promega Mid Range Molecular Weight Standards were diluted into the loading solution described in the reference above to produce solutions containing 200, 100, 50, 25, and 12.5 ng of each protein species in 10 μl of solution. These solutions were loaded onto the gels and the samples were fractionated in the gels by application of 10 mA per gel until the tracking dye for the samples reached the bottom of the gel. The gels were then rinsed 1 min in distilled water, 15 min in 10% trichloracetic acid (w/v), and then for 15 min in 10% methanol (v/v). The gel segments, approximately 5×6 cm containing the fractionated standard, were then transferred to a 2% ethanol solution (50 ml) containing 0.05 OD328 -equivalent of each of the dansyl derivatives (see Example 26).
The gel segments were returned to their respective staining solutions and were incubated overnight. The following morning, all of the gel segments were again visualized on the transilluminator and photographed as described above. […] In general, relatively equivalent staining of bands was obtained as determined by the strength of the fluorescent signal observed for the various fractionated species.

[10] = after overnight destaining in 5% methanol

lowest carbonic anhydrase per band stained [1]: 60 ng
Structure (SMILES): CCCCCCCCCCCCN=C1C(c2ccccc2)=COC1(OC)c1ccccc1 (stereo not drawn) [dodecyl MDPF derivative]
lowest protein per band stained, all proteins [2]: 80 ng | lowest protein per band stained [3, 10]: 20 ng

lowest carbonic anhydrase per band stained [1]: 40 ng
Structure (SMILES): CCCCCCCCN=C1C(c2ccccc2)=COC1(OC)c1ccccc1 (stereo not drawn) [octyl MDPF derivative]
lowest protein per band stained, all proteins [2]: 60 ng | lowest protein per band stained (most of the species) ([3]; 0.5% (v/v) stain in water, 1 hr): 20 ng | retention of fluorescent staining [3, 10]: almost all of the fluorescent staining of the octyl MDPF derivative stained gel had been lost

Structure (SMILES): CCCCCCCCCCCCCCCCNC(=O)CCCCCNc1ccc([N+](=O)[O-])c2nonc12 [NBODY-C16]
lowest protein per band detected [4]: 25 ng

Structure (SMILES): CCCCCCCCCCCCNS(=O)(=O)c1cccc2c(N(C)C)cccc12 [dodecyl dansyl derivative]
visibility of protein bands ([5]; 3 hrs, 30 or 40% ethanol and 10 or 20% acetic acid, 20, 10, 5 ng per band): faintly visible | level of protein per band detected ([5]; overnight staining in ethanol/acetic acid): ≤ 5 ng | detection of protein species migrating more than halfway through the gel [6]: not easily detected | lowest protein per band seen (many of the heavier molecular weight species) [6]: 12.5 ng | staining ([7]; all other staining solutions, overnight): No other staining solution allowed visualization of the fractionated protein species at this point | protein per band displayed as fluorescent bands ([7]; stain in 0.5M ammonium bicarbonate, pH 5.0, overnight): 25 ng | protein per band displayed as fluorescent bands ([7]; stain in 1% acetic acid, overnight): 25 ng | staining ([7]; stain in 1% trichloroacetic acid, overnight): neither protein detection nor background staining | staining ([7]; stain in 2M Tris pH 8.0, overnight): much weaker staining | staining after distilled water ([7]; stained in 0.5M ammonium bicarbonate, pH 5.0, then 1 hr water): Staining was seen | staining after distilled water ([7]; stained in 1% acetic acid, then 1 hr water): greater fluorescence | staining after distilled water ([7]; stained in 1% trichloroacetic acid, then 1 hr water): greater fluorescence | staining after distilled water ([7]; stained in 2M Tris pH 8.0, then 1 hr water): Staining was seen | lowest protein per band visible ([8]; 2% (v/v) eluate in 10% methanol, two hours of staining): 300 ng | protein per band at which most of the protein species were visible ([8]; after 1% acetic acid, three hours): 6.25 ng | protein per band at which at least some of the bands could be visualized ([8]; overnight staining): 12.5 ng | staining quality compared to the amino or butyl derivatives [9]: much better stains compared to the amino or butyl derivatives | lowest protein amount with visible bands (several of the bands) ([9]; 15 min staining): 100 ng | visibility of protein bands ([9]; overnight staining): easily visible
